Literature values in patent US10004757B1, “Oral supplement” (Nutri Vida, LLC, priority 2017, dated 2018).

Details: taken over the daily recommended amount

SMILES: O=C(O)c1cccnc1 [Niacin, nicotinic acid]
- decrease in triglycerides: 30%
